The values that follow come from patent publication US20230346820A1, “METHODS AND COMPOSITIONS FOR THE TREATMENT OF SARS-COV-2” (priority 2020, published 2023).

Data set [1] deals with SARS-CoV-2. Particulars: for Calu3 SI CC50/CoV-2 EC50: Table 4.
Data set [2] is described as follows: in vitro. Particulars: human.
Data set [3] is described as follows: in vitro. Particulars: human. The source holds these as a separate data set.
Protocol: To assess cell viability, 2 μL of 50% Cell-Titer Glo (Promega No G7573) diluted in water was added to the cells and luminescence measured on an EnVision Plate Reader (Perkin Elmer).
Data analysis. […] Primary in vitro screen and the host cell cytotoxicity counter screen data were uploaded to Genedata Screener, Version 16.0.3-Standard. […] For the uninfected host cell cytotoxicity counter screens, 40 μM puromycin (Sigma) was used as the positive (inhibitory) control in HeLa-ACE2, HepG2 and HEK293T cells, and 30 μM puromycin (Sigma) was used as the positive (inhibitory) control for Calu-3 cells. For dose response experiments compounds were tested in technical triplicates on different assay plates and dose curves were fitted with the four parameter Hill Equation. Technical replicate data were analyzed using median condensing. Geometric means and geometric standard deviations are reported for compound activities (EC50s and CC50s) obtained in multiple independent biological experiments. […] Geometric means were calculated by computing the logarithm (base 10) of all values, calculating the mean of these logarithms, and taking the antilog of that mean. Geometric standard deviations were computed by taking the standard deviation of the log-transformed individual values and taking the antilog of that standard deviation. The geometric standard deviation is a unitless ratio and reported as ×÷ instead of +/−.
For data set [4], the system named is SARS-CoV-2. The data set is described as follows: microbe, parasite or virus in culture. Particulars: Severe acute respiratory syndrome coronavirus 2, Calu-3, 48 h, read-out: Calu-3 CoV-2 EC50 [μM].
The test system of data set [5] is SARS-CoV-2. Kind of data set: microbe, parasite or virus in culture.
For another data set, the system named is HeLa-ACE2 cells. The data set is described as follows: cells. Format: cell-based, human. The conditions noted are these: Homo sapiens, HeLa-ACE2, read-out: HeLa-ACE-2 EC50 [μM] (Geomeans, n ≥ 2).
The subject of data set [6] is SARS-CoV-2. The conditions noted are these: for HeLa-ACE2 SI CC50/CoV-2 EC50: Table 4.
[7] abbreviates: HeLa-ACE2 Uninfected Tox CC50 [μM], Table 4, aggregated data, Geomean, n = 3.
The mark [8] stands for this setting: CC50 [μM] (Geomeans, n ≥ 2 except where indicated: *n = 1).
[9] abbreviates: Severe acute respiratory syndrome coronavirus 2, HeLa-ACE2, 24 h, read-out: CoV-2 EC50 [μM] (Geomeans, n ≥ 2).

Counter-ions that a name gives are not always drawn. Like-named read-outs stand apart in the source and are kept apart here.

As for `C=Cc1cc(C(=O)Nc2ccc(C(=N)N)cc2)c(-c2ccc(C(=O)NCC3CC3)nc2C(=O)O)cc1OC` [Avoralstat], in the data set with SARS-CoV-2 [1], the “activity in Calu-3 infection assay” value is listed as “active” and the “Calu3 SI CC50/CoV-2 EC50” value is recorded as above 77. This molecule registered a CC50 in the data set “in vitro [2]” (setting [7]) above 39.8 µM. The molecule further returned a CC50 in the data set “in vitro [3]” above 29.9 µM.
A word on the EC50: it is the concentration needed to bring the measured effect to its halfway point. Take `CC(=N)N1CCC(Oc2ccc(N(Cc3ccc4ccc(C(=N)N)cc4c3)S(=O)(=O)CC(=O)O)cc2)CC1` [YM 60828]: in the data set on SARS-CoV-2 [1], the “Calu3 SI CC50/CoV-2 EC50” value was above 9. The CC50 was above 39.8 µM in the data set “in vitro [2]” (setting [7]) and above 29.9 µM in the data set “in vitro [3]”. Also, the concentration for a half-maximal effect (EC50) in the data set on SARS-CoV-2 [4] is 3.38 µM.
In the case of `CCCCCCC1C(=O)O[C@H](C)[C@H](NC(=O)c2cccc(NC=O)c2O)C(=O)O[C@@H](C)[C@@H]1OC(=O)CC(C)C` (some centres unmarked) [Antimycin A], the “Calu3 SI CC50/CoV-2 EC50” value in the data set on SARS-CoV-2 [1] came to 22.00. In addition, the CC50 in “in vitro [2]” (setting [7]) is above 39.8 µM; in the data set “in vitro [3]”, 0.608 µM. The EC50 with SARS-CoV-2 [5] (Severe acute respiratory syndrome coronavirus 2, HeLa-ACE2, read-out: HeLa-ACE2 CoV-2 EC50 [μM], Table 4, aggregated data, Geomean, n = 3) is above 9.59 µM; in the data set with SARS-CoV-2 [4], 0.028 µM.
Regarding `O=c1nc(NO)ccn1[C@@H]1O[C@H](CO)[C@@H](O)[C@H]1O` [N-hydroxycytidine], the EC50 in the data set with HeLa-ACE2 cells is above 9.6 µM. For the same molecule, in the data set with SARS-CoV-2 [6], the “HeLa-ACE2 CC50/CoV-2 EC50” value is above 18.13; the “activity in HeLa-ACE2 infection assay” value was “potent and selective”. For the same molecule, the “activity in Calu-3 infection assay” value in the data set on SARS-CoV-2 [1] was “potent and selective”. This molecule also gave a CC50 in “in vitro [2]” (setting [8]) above 37.5 µM.
With `COCc1c(C(C)C)nc(C(C)C)c(/C=C/[C@@H](O)C[C@@H](O)CC(=O)O)c1-c1ccc(F)cc1` [cerivastatin (sodium salt)], the “Calu3 SI CC50/CoV-2 EC50” value with SARS-CoV-2 [1] was above 85. The values for the CC50 in the data set “in vitro [2]” (setting [7]) and in “in vitro [3]” were 0.308 µM and above 29.9 µM, respectively. For the same molecule, in the data set on SARS-CoV-2 [4], the EC50 was 0.348 µM.
Turning to `CN1CCN(C2=Cc3cc(Cl)ccc3/C(=C\C#N)c3ccccc32)CC1` [Alkene Stereoisomer analog of Rilapine], the values for the EC50 in the data set with HeLa-ACE2 cells and in the data set on SARS-CoV-2 [5] (setting [9]) were above 9.59 µM and 2.99 µM, respectively. In the data set on SARS-CoV-2 [6], the “HeLa-ACE2 CC50/CoV-2 EC50” value is on record as above 13.32. In the data set “in vitro [2]” (setting [8]), this molecule displayed a CC50 above 39.8 µM.
The like results for `COCC12CN(S(=O)(=O)c3ccc4cc(Cl)ccc4c3)CC(=O)N1CC1(CCN(c3ccncc3)CC1)O2` (centres unmarked) [M-55532] were, in that order, above 6.45 µM, 2.77 µM, 6.81 and 18.9 µM.
Consider `CC(=O)N1C[C@H](O)C[C@H]1C(=O)N[C@@H](CCCNC(=N)N)C(=O)c1nc2ccccc2s1` [RWJ-56423], for which, in the data set on SARS-CoV-2 [1], the “Calu3 SI CC50/CoV-2 EC50” value is on record as above 24. For the same molecule, the CC50 in “in vitro [2]” (setting [7]) was above 39.8 µM; in “in vitro [3]”, above 29.9 µM. Also, the EC50 with SARS-CoV-2 [4] is 1.23 µM.
As for `CN1CCN(C2Cc3cc(Cl)ccc3Sc3ccccc32)CC1` (centres unmarked) [OCTOCLOTHEPIN analog], the EC50 is above 8.73 µM in the data set with HeLa-ACE2 cells and 2.49 µM in the data set on SARS-CoV-2 [5] (setting [9]). The “HeLa-ACE2 CC50/CoV-2 EC50” value in the data set with SARS-CoV-2 [6] is recorded as above 11.42. In the data set “in vitro [2]” (setting [8]), the CC50 was above 28.4 µM.
Consider `Oc1ccc(CCN2CCC(Nc3nc4ccccc4n3Cc3ccc(F)cc3)CC2)cc1` [DESMETHYLASTEMIZOLE], for which the EC50 in the data set with HeLa-ACE2 cells is above 9.59 µM; with SARS-CoV-2 [5] (setting [9]), 2.38 µM. In addition, the “HeLa-ACE2 CC50/CoV-2 EC50” value in the data set on SARS-CoV-2 [6] was found to be 6.81. In “in vitro [2]” (setting [8]), this molecule had a CC50 of 16.2 µM.
On the same counts, the results for `COc1cc(C(C)=O)ccc1OCCCN1CCC(C(O)(c2ccc(F)cc2)c2ccc(F)cc2)CC1` [AHR-5333] are above 7.1 µM, above 4.53 µM, 5.44 and above 24.7 µM.
In the case of `CC(=O)O[C@H]1C[C@H](O[C@H]2[C@@H](O)C[C@H](O[C@H]3[C@@H](O)C[C@H](O[C@H]4CC[C@@]5(C)[C@H](CC[C@@H]6[C@@H]5C[C@@H](O)[C@]5(C)[C@@H](C7=CC(=O)OC7)CC[C@]65O)C4)O[C@@H]3C)O[C@@H]2C)O[C@H](C)[C@H]1O[C@@H]1O[C@H](CO)[C@@H](O)[C@H](O)[C@H]1O` [LANATOSIDE], the “HeLa-ACE2 SI CC50/CoV-2 EC50” value in the data set on SARS-CoV-2 [6] is on record as 6.56. In the data set on SARS-CoV-2 [1], the “Calu3 SI CC50/CoV-2 EC50” value was determined as 31.97. The CC50 is 1.35 µM in “in vitro [2]” (setting [7]) and 6.21 µM in the data set “in vitro [3]”. The EC50 in the data set with SARS-CoV-2 [4] turned out to be 0.194 µM.
The like results for `CSc1ccc(CN2CCCC(Nc3ccc4[nH]ncc4c3)C2)cc1` (centres unmarked) [INS-117548] were, in that order, 4.15, above 8.42, above 39.8 µM, above 29.9 µM and above 3.55 µM.
Take `N#Cc1cccc(C(C(=O)NCC(c2ccccc2)c2ccccc2)N(CCc2c[nH]cn2)C(=O)c2ccccc2C(=O)c2ccccc2)c1` (centres unmarked) [GENZ-29155]: the “HeLa-ACE2 SI CC50/CoV-2 EC50” value in the data set on SARS-CoV-2 [6] is reported as 4.01. Besides, in the data set with SARS-CoV-2 [1], the “Calu3 SI CC50/CoV-2 EC50” value is given as above 6.41. Further, the CC50 is above 38.5 µM in “in vitro [2]” (setting [7]) and above 29.9 µM in “in vitro [3]”. In addition, in the data set with SARS-CoV-2 [4], the EC50 is above 4.66 µM.
As for `Cc1cccc(C)c1NC(=O)CN1CCN([C@@H]2CCN(C(=O)c3cc(C(F)(F)F)cc(C(F)(F)F)c3)[C@@H](Cc3ccccc3)C2)CC1` [R-116301], the EC50 in the data set on HeLa-ACE2 cells was above 9.59 µM; in the data set with SARS-CoV-2 [5] (setting [9]) it was 6.83 µM. Also, the “HeLa-ACE2 CC50/CoV-2 EC50” value with SARS-CoV-2 [6] came to 3.73. This molecule also registered a CC50 in the data set “in vitro [2]” (setting [8]) of 25.5 µM.
